The record followed here is patent publication US20260207519A1, “ISOLATED TARGETED DELIVERY SYSTEM FOR THE TREATMENT OF OVARIAN CANCER” (CELLIS SP. Z O.O. [LTD.], priority 2022, published 2026).

The assay relates to A2780_luc tumors. In words: 3rd in vivo study: A2780_luc orthotopic xenograft model. Also noted: species or system female Balb/c nude mice. As to conditions: vehicle 13 days; Kaplan-Meier, log-rank test. Here is the method: FIG. 14: The Kaplan-Meier survival curve of female nude mice implanted […] with A2780_luc tumors. N=8 for both groups initially. Statistical analysis was carried out using log-rank (Mantel-Cox) test.
All in vivo studies were performed using female Balb/c nude mice at age 5-8 weeks. Animals were imaged using an In Vivo Imaging System (IVIS, Newton 7.0, Vilber).
A2780_luc or A2780-cis_luc cells were orthotopically implanted into both ovaries of mice. 5 days after implant mice were imaged using IVIS and those with most similar bioluminescent intensity values were assigned to the following treatment groups: […]

The structures appear in SMILES notation.

The compound `N.N.[Cl][Pt][Cl]` [cisplatin, Cisplatin] yielded a median survival of 14.5 days.
